Measured values: patent US7109186B2 (Bristol-Myers Squibb Company, priority 2002, dated 2006)

target: T1, HIV-integrase (Human immunodeficiency virus type 1 group M subtype B, UniProt P04585); test: HIV integrase SPA integration assay (biotin-labeled substrate DNA on streptavidin SPA beads, P33-labeled target DNA); format: biochemical; details: percent inhibition of HIV-integrase in the presence of 20 μM of compound
T1 construct: 0.26 ng of recombinant integrase was incubated with the beads for 90 min at 37 C
Procedure: For each reaction, 5 pmole of biotin labeled substrate DNA was bound to 100 ug of Streptavidin coated PVT SPA beads (Amersham Pharmacia Biotech). 0.26 ng of recombinant integrase was incubated with the beads for 90 min at 37 C. Unbound enzyme was removed by washing the complex followed by addition of inhibitors and 0.1 fmol of P33 labeled target DNA. Reaction was stopped by adding EDTA to a final concentration of 10 mM. Samples were counted in TopCountNXT (Packard) and the CPM was used as a measure of integration. Reaction condition was as described in A. Engelman and R. Craigie, J. Virol. 69, 5908–5911 (1995). The sequences of substrate and target DNA were described in Nucleic Acid Research 22, 1121–1122 (1994).

| SMILES | inhibition at 20 µM |
| --- | --- |
| CON(Cc1ccc(F)c(C#N)c1)C(=O)C1=C(O)C(=O)N(C)C1 [Compound 61, 4-Hydroxy-1-methyl-5-oxo-2,5-dihydro-1H-pyrrole-3-carboxylic acid (3-cyano-4-fluoro-benzyl)-methoxy-amide] | 99.3% |
| CN(Cc1ccc(Cl)c(Cl)c1)C(=O)C1=C(O)C(=O)N(CCP(=O)(O)O)C1 [Compound 23, (2-{4-[(3,4-Dichloro-benzyl)-methyl-carbamoyl]-3-hydroxy-2-oxo-2,5-dihydro-pyrrol-1-yl}-ethyl)-phosphonic acid] | 99.9% |
| CON(C(=O)C1=C(O)C(=O)N(C)C1)C(c1ccc(F)cc1)c1ccc(F)cc1 [Compound 73, 4-Hydroxy-1-methyl-5-oxo-2,5-dihydro-1H-pyrrole-3-carboxylic acid [bis-(4-fluoro-phenyl)-methyl]-methoxy-amide] | 10% |
| CN1CC(C(=O)N(C)Cc2ccccc2)=C(O)C1=O [Compound 79, 4-Hydroxy-1-methyl-5-oxo-2,5-dihydro-1H-pyrrole-3-carboxylic acid benzyl-methyl-amide] | 92.4% |
| CN(Cc1ccc(F)cc1)C(=O)C1=C(O)C(=O)N(CCc2ccc(F)cc2)C1 [Compound 9, 1-[2-(4-Fluoro-phenyl)-ethyl]-4-hydroxy-5-oxo-2,5-dihydro-1H-pyrrole-3-carboxylic acid (4-fluoro-benzyl)-methyl amide] | 99.9% |
| CNCCN1CC(C(=O)N(C)Cc2ccc(Cl)c(Cl)c2)=C(O)C1=O [Compound 15, 4-Hydroxy-1-(2-methylamino-ethyl)-5-oxo-2,5-dihydro-1H-pyrrole-3-carboxylic acid (3,4-dichloro-benzyl)-methyl-amide] | 99.7% |
| CN(Cc1ccc(F)cc1)C(=O)C1=C(O)C(=O)N(CCc2ccccc2)C1 [Compound 8, 4-Hydroxy-5-oxo-1-phenethyl-2,5-dihydro-1H-pyrrole-3-carboxylic acid (4-fluoro-benzyl)-methyl-amide] | 99.9% |
| CON(Cc1ccc(F)cc1F)C(=O)C1=C(O)C(=O)N(C)C1 [Compound 60, 4-Hydroxy-1-methyl-5-oxo-2,5-dihydro-1H-pyrrole-3-carboxylic acid (2,4-difluoro-benzyl)-methoxy-amide] | 99.7% |
| CN(Cc1ccc(Cl)c(Cl)c1)C(=O)C1=C(O)C(=O)N(C(CC(N)=O)C(=O)O)C1 (centres unmarked) [Compound 25, 2-{4-[(3,4-Dichloro-benzyl)-methyl-carbamoyl]-3-hydroxy-2-oxo-2,5-dihydro-pyrrol-1-yl}-succinamic acid] | 99.9% |
| CN(Cc1ccc(Cl)c(Cl)c1)C(=O)C1=C(O)C(=O)N(CCC(=O)NCC(=O)O)C1 [Compound 39, (3-{4-[(3,4-Dichloro-benzyl)-methyl-carbamoyl]-3-hydroxy-2-oxo-2,5-dihydro-pyrrol-1-yl}-propionylamino)-acetic acid] | 99.9% |
| CN(Cc1ccc(Cl)c(Cl)c1)C(=O)C1=C(O)C(=O)N(Cc2cccs2)C1 [Compound 31] | 99.9% |
| COC(=O)CCCN1CC(C(=O)N(C)Cc2ccc(Cl)c(Cl)c2)=C(O)C1=O [Compound 33] | 99.9% |
| CN(Cc1ccc(F)cc1)C(=O)C1=C(O)C(=O)N(CCc2ccccc2F)C1 [Compound 5, 1-[2-(2-Fluoro-phenyl)-ethyl]-4-hydroxy-5-oxo-2,5-dihydro-1H-pyrrole-3-carboxylic acid (4-fluoro-benzyl)-methyl-amide] | 99.8% |
| CON(Cc1ccc(F)cc1)C(=O)C1=C(O)C(=O)N(CCN2CCOCC2)C1 [Compound 45, 4-Hydroxy-1-(2-morpholino-4-yl-ethyl)-5-oxo-2,5-dihydro-1H-pyrrole-3-carboxylic acid (4-fluoro-benzyl)-methoxy-amide] | 99.5% |
| CN(Cc1ccc(Cl)c(Cl)c1)C(=O)C1=C(O)C(=O)N(Cc2ccc(C(=O)O)cc2)C1 [Compound 36, 4-{4-[(3,4-Dichloro-benzyl)-methyl-carbamoyl]-3-hydroxy-2: oxo-2,5-dihydro-pyrrol-1-ylmethyl}-benzoic acid] | 92% |
| CN(Cc1ccc(F)cc1)C(=O)C1=C(O)C(=O)N(CCCc2ccccc2)C1 [Compound 10, 4-Hydroxy-5-oxo-1-(3-phenyl-propyl)-2,5-dihydro-1H-pyrrole-3-carboxylic acid (4-fluoro-benzyl)-methyl-amide] | 99.9% |
| CCOP(=O)(CCN1CC(C(=O)N(C)Cc2ccc(Cl)c(Cl)c2)=C(O)C1=O)OCC [Compound 23-A, (2-[4-[(3,4-Dichloro-benzyl)-methyl-carbamoyl]-3-hydroxy-2-oxo-2,5-dihydro-pyrrol-1-yl]-ethyl)-phosphonic acid diethyl ester] | 99.9% |
| COC(=O)c1ccc(CN2CC(C(=O)N(C)Cc3ccc(Cl)c(Cl)c3)=C(O)C2=O)cc1 [Compound 41, 4-{4-[(3,4-Dichloro-benzyl)-methyl-carbamoyl]-3-hydroxy-2-oxo-2,5-dihydro-pyrrol-1-ylmethyl}-benzoic acid methyl ester] | 99.9% |
| CON(Cc1ccc(C(=O)OC(C)(C)C)cc1)C(=O)C1=C(O)C(=O)N(C)C1 [Compound 68-A, 4-{[(4-Hydroxy-1-methyl-5-oxo-2,5-dihydro-1H-pyrrole-3-carbonyl)-methoxy-amino]-methyl}-benzoic acid tert-butyl ester] | 4.5% |
| CN(Cc1ccc(Cl)c(Cl)c1)C(=O)C1=C(O)C(=O)N(Cc2ccncc2)C1 [Compound 21] | 99.9% |
| CN(Cc1ccc(F)cc1)C(=O)C1=C(O)C(=O)N(CCc2ccc(Cl)cc2Cl)C1 [Compound 6, 1-[2-(2,4-Dichloro-phenyl)-ethyl]-4-hydroxy-5-oxo-2,5-dihydro-1H-pyrrole-3-carboxylic acid (4-fluoro-benzyl)-methyl-amide] | 99.9% |
| CN1CCN(CCN2CC(C(=O)N(C)Cc3ccc(Cl)c(Cl)c3)=C(O)C2=O)CC1 [Compound 32, 4-Hydroxy-1-[2-(4-methyl-piperazin-1-yl)-ethyl]-5-oxo-2,5-dihydro-1H-pyrrole-3-carboxylic acid (3,4-dichloro-benzyl)-methyl-amide] | 99.9% |
| COC(=O)c1ccc(CN(OC)C(=O)C2=C(O)C(=O)N(C)C2)cc1 [Compound 67, 4-{[(4-Hydroxy-1-methyl-5-oxo-2,5-dihydro-1H-pyrrole-3-carbonyl)-methoxy-amino]-methyl}-benzoic acid methyl ester] | 96.5% |
| CON(Cc1ccccc1OC(C)C)C(=O)C1=C(O)C(=O)N(C)C1 [Compound 66, 4-Hydroxy-1-methyl-5-oxo-2,5-dihydro-1H-pyrrole-3-carboxylic acid (2-isopropoxy)-methoxy-amide] | 99% |
| CON(Cc1ccc(F)cc1)C(=O)C1=C(O)C(=O)N(CCN2CCNCC2)C1 [Compound 46, 4-Hydroxy-5-oxo-1-(2-piperazin-1-yl-ethyl)-2,5-dihydro-1H-pyrrole-3-carboxylic acid (4-fluoro-benzyl)-methoxy-amide] | 99.3% |
| CN(Cc1ccc(F)cc1)C(=O)C1=C(O)C(=O)N(CCc2ccccc2Cl)C1 [Compound 3, 1-[2-(Chloro-phenyl)-ethyl]-4-hydroxy-5-oxo-2,5-dihydro-1H-pyrrole-3-carboxylic acid (4-fluoro-benzyl)-methyl amide] | 99.9% |
